Patent US20130072438A1, “OPIOID PEPTIDE ESTERS AND METHODS OF USE” (The United States Government as represented by the …, priority 2011, published 2013)
Residues, ends and D or L forms follow the SMILES beside them.

Test system: male Wistar rats
Assay: Cold immersion tail withdrawal latency after intraperitoneal dosing
Type: in vivo, rat
Conditions: for Trial 1 Latency (s), post-treatment cold immersion response / Trial 2 Latency (s), post-treatment cold immersion response / Trial 3 Latency (s), post-treatment cold immersion response: from 30 min post-dose, -20° C bath
Description: Three male Wistar rats at 8 weeks of age (Taconic Farms, Germantown, N.Y.) were utilized in the experiment. Each rat was grasped firmly, while the distal half of its tail was immersed in a liquid bath at a temperature of −20° C. Latency periods (in seconds) were measured from the time that tails were immersed to the time that the rat removed its tail from the liquid. Prior to dosing, rats were given three trials, approximately ten minutes apart. […] Post-dose trials were also approximately ten minutes apart. Animals were examined for acute adverse effects to both the cold liquid bath and the test article.

## CCOC(=O)C1CCCN1C(=O)C(N)Cc1ccc(O)cc1 (stereo not drawn) [Tyr-Pro-Ethyl] (H-Tyr-Pro-OEt; configuration not given here)
Animal 1, 1 mg i.p.
  Mean latency of three trials, post-treatment cold immersion response: 15.6 s
  Post-treatment mean with longest latency period eliminated: 12.4
  Trial 1 Latency (s), post-treatment cold immersion response: 13.2 s
  Trial 2 Latency (s), post-treatment cold immersion response: 22.1 s
  Trial 3 Latency (s), post-treatment cold immersion response: 11.5 s
Animal 2, 2 mg i.p.
  Mean latency of three trials, post-treatment cold immersion response: 7.2 s
  Post-treatment mean with longest latency period eliminated: 4.7
  Trial 1 Latency (s), post-treatment cold immersion response: 4.7 s
  Trial 2 Latency (s), post-treatment cold immersion response: 4.7 s
  Trial 3 Latency (s), post-treatment cold immersion response: 12.2 s
Animal 3, 0.5 mg i.p.
  Mean latency of three trials, post-treatment cold immersion response: 7.2167 s
  Post-treatment mean with longest latency period eliminated: 6.3
  Trial 1 Latency (s), post-treatment cold immersion response: 6.45 s
  Trial 2 Latency (s), post-treatment cold immersion response: 6.2 s
  Trial 3 Latency (s), post-treatment cold immersion response: 9.0 s
rats, at the doses given (0.5, 1, 2 mg i.p.), inferred from latency data
  Crossing of the BBB: able to cross the BBB
rats, cerebrospinal fluid, inferred from latency data
  Hydrolysis by esterases: hydrolyzed by esterases in the cerebrospinal fluid
rats, cold immersion, 0.5, 1, 2 mg i.p.
  Effect on sensitivity to noxious stimulus: increase sensitivity to noxious stimulus
